# PMC5799307, “Creation of a long-acting nanoformulated dolutegravir” (Nature Communications, 2018)
# Read-outs that look alike come from different tables or passages of the source.
# Experiments:
# Assay type in all cases: cell-based
# [1] = tested on: HIV-1ADA; assay: IC50 by HIV-1 RT activity in HIV-1ADA-infected MDM; details: Human immunodeficiency virus 1, 240 h, HIV-1ADA MOI 0.1, RT activity day 10
# Protocol: (§1) Antiretroviral efficacy was determined by measurements of HIV reverse transcriptase (RT) activity. For IC50 determination, MDM were exposed to various concentrations (0.01–1000 nM) of DTG or MDTG for 1 h followed by challenge with HIV-1ADA[60] at a multiplicity of infection (MOI) of 0.1 infectious particles per cell for 4 h. Following viral challenge, cells were washed and incubated with the same concentration of drug used before infection for an additional 10 days in culture. Culture fluids were collected on day 10 for the measurement of RT activity as previously described[16],[62],[63]. To assess antiretroviral efficacy, MDM were treated with 100 μM DTG, MDTG, NDTG, or NMDTG as described above for 8 h. After treatment, cells were washed with PBS and cultured with fresh media, with half-media exchanges every other day. At 0, 4, 12 h, and 1, 5, 10, 15, 20, 25, or 30 days after treatment, cells were challenged with HIV-1ADA at an MOI of 0.1 infectious particles per cell for 16 h. After viral infection, the cells were cultured an additional 10 days with half-media exchanges every other day. Culture fluids were collected for measurement of RT activity as previously described[16],[62],[63]. Cells were fixed with 4% PFA and expression of HIV-1p24 antigen was determined by immunocytochemistry.
# [2] = tested on: human monocyte-derived macrophages (MDM); details: 100 µM
# Protocol: Human monocytes were obtained by leukapheresis from HIV-1/2 and hepatitis B seronegative donors, and then purified by counter-current centrifugal elutriation. Human monocytes were plated in a 12-well plate at a density of 1.0 × 10^6 cells per well using DMEM supplemented with 10% heat-inactivated pooled human serum, 1% glutamine, 10 µg/mL ciprofloxacin, and 50 µg/mL gentamicin. Cells were maintained at 37 °C in a 5% CO2 incubator. After 7 days of differentiation in the presence of 1000 U/mL recombinant human macrophage colony stimulating factor (MCSF), MDM were treated with 100 μM DTG, MDTG, NDTG, or NMDTG. Native drugs were added in DMSO (0.1% v/v). Uptake of drug was assessed by measurements of intracellular drug concentrations at 2, 4, 8, 12, 16, or 24 h after treatment. […] For both studies, adherent MDM were washed with PBS, then scraped into PBS, and counted at indicated time points using an Invitrogen Countess Automated Cell Counter (Carlsbad, CA). […] DTG and MDTG drug content was determined by UPLC-UV/Vis as described above. Release was assessed by collecting culture media after 4-h of drug treatment on days 1, 3, 5, 7, 10, 12, and 14. […] Supernatants were dried using a ThermoScientific Savant Speed Vacuum (Waltham, MA), extracted drug resuspended in 150 µL HPLC-grade methanol, and drug content was determined by UPLC-UV/Vis. […]
# [3] = tested on: HIV-1ADA; assay: Antiretroviral efficacy in MDM challenged with HIV-1ADA after single 8-h treatment (RT activity, p24)
# Protocol: as §1
# For immunocytochemistry, cells were washed with PBS and fixed with 4% PFA at room temperature for 15 min, followed by an additional washing with PBS. The cells were treated with a blocking/permeabilizing solution (1% Triton X-100, 10% BSA in PBS) and incubated with mouse monoclonal antibody to HIV-1p24 (1:100) for 16 h at 4 °C. Cells were washed with PBS, and polymer-based HRP-conjugated anti-mouse secondary was added for 30 min at room temperature. Cells were then washed with PBS and developed with DAB. Nuclei were counterstained with Mayer’s hematoxylin, and cells were visualized with a ×20 objective on a Nikon Eclipse E800 microscope (Melville, NY) with Nuance EX multispectral imaging system (PerkinElmer, Hopkinton, MA)[16],[59].
maximum cellular drug level ([2]; 4 h),Compound,IC50 [1],drug retained within MDM ([2]; 24 h),"inhibition at 100 µM ([3]; Human immunodeficiency virus 1, single 8-h treatment, read-out: maximal inhibition of HIV-1 RT activity)","time after drug treatment for which efficacy was observed ([3]; single 8-h treatment, 100 µM)","inhibition at 100 µM ([3]; Human immunodeficiency virus 1, challenge at day 30 after drug loading, read-out: viral inhibition)","beginning of viral breakthrough ([3]; days after single 8-h treatment, 100 µM)"
,"C[C@@H]1CCO[C@H]2Cn3cc(C(=O)NCc4ccc(F)cc4F)c(=O)c(O)c3C(=O)N12 [DTG, dolutegravir]",0.0567 µM,< 0.1 µg/10^6 cells,65%,up to 4 h,,
16.7 µg/10^6 cells,CCCCCCCCCCCCCC(=O)Oc1c2n(cc(C(=O)NCc3ccc(F)cc3F)c1=O)C[C@@H]1OCC[C@@H](C)N1C2=O [MDTG],0.0625 µM,,,,83%,20 days
